Test results published in US20080274892A1, “Novel Haloalkylsulfonanilide Derivative, Herbicide, and Method of Use Thereof” (priority 2005, published 2008).

Columns and labels:
bulrush [1] = experiment: Test Example 4: low dosage test for rice paddy weeds; type: in vivo, Scirpus juncoides; settings: 300 g/ha as an active ingredient; plants treated at the one leaf stage; 21 days after treatment; vs untreated control
Outline: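 Bulrush sown in clay loam pots, flooded to 5 cm water in a hot house, treated at the one-leaf stage with formulated compound at 300 g/ha. Efficacy scored 0–4 against untreated control 21 days after treatment (4 = 90–100%, 0 = 0% inhibition).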

bulrush [2] = experiment: Test Example 1: herbicidal efficacy on rice paddy weeds pre-emergence; type: in vivo, Scirpus juncoides; settings: dosage 1000 g/ha, 21 days
[3] = tested on: paddy rice plant (cultivar: Nihonbare); experiment: Test Example 3: phytotoxicity test for transplanted paddy rice plant; type: in vivo; settings: dosage 1000 g/ha; transplanted rice, treated 5 days after transplantation; 21 days after treatment
Outline: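 Clay loam soil was placed in a 75 cm^2 plastic pot and flooded to a water depth of 5 cm. Two Nihonbare paddy rice plants at the two-leaf stage were transplanted 1 cm deep and grown in a hot house. After treatment, pots stayed in the hot house for 21 days, and phytotoxicity was then graded against an untreated control.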

[4] = tested on: transplanted paddy rice plant and Bulrush; experiment: Test Example 5: selectivity between transplanted paddy rice plant and weeds; type: in vivo; settings: (highest dosage with no phytotoxicity to paddy rice)/(lowest dosage with effective level 4 on Bulrush); rice 3000-100 g/ha, Bulrush 300-10 g/ha; 21 days
Outline: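 Transplanted paddy rice was treated at 3000, 1000, 300 and 100 g/ha active ingredient for phytotoxicity, and post-emergence bulrush at 300, 100, 30 and 10 g/ha. Plants were kept in a hothouse for 21 days. Growth inhibition versus untreated control was scored 0–4 (0%, 1–39%, 40–69%, 70–89%, 90–100%).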

bulrush [5] = experiment: Test Example 2: herbicidal efficacy on rice paddy weeds post-emergence; type: in vivo, Scirpus juncoides; settings: dosage 1000 g/ha; post-emergence, one leaf stage; 21 days after treatment
false pimpernel [6] = experiment: Test Example 1: herbicidal efficacy on rice paddy weeds pre-emergence; type: in vivo, Lindernia pyxidaria; settings: dosage 1000 g/ha, 21 days
barnyard glass = experiment: Test Example 2: herbicidal efficacy on rice paddy weeds post-emergence; type: in vivo, Echinochloa crus-galli; settings: dosage 1000 g/ha; post-emergence, one leaf stage; 21 days after treatment
Outline: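 Plastic pots of 75 cm^2 were filled with clay loam soil and sown with barnyard glass and bulrush seeds, then topped with 75 cm^3 soil containing false pimpernel seeds. The pots were flooded to 5 cm water depth and held in a hot house. Twenty-one days after treatment, herbicidal efficacy was graded against an untreated control.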

false pimpernel [7] = experiment: as above; type: in vivo, Lindernia pyxidaria; settings: dosage 1000 g/ha; post-emergence, one leaf stage; 21 days after treatment

CCC1CN(Cc2ccccc2NS(=O)(=O)C(F)(F)F)C(=O)O1 (stereo not drawn) [Compound No. 1-23, 5-ethyl-3-[2-(trifluoromethanesulfonylamino)benzyl]-2-oxazolidinone]
Herbicide effect to Bulrush (bulrush [1]): 4 (90%-100% of herbicidal efficacy or phytotoxicity)
Bulrush pre (herbicidal efficacy grade) (bulrush [2]): 4 (90%-100% of herbicidal efficacy or phytotoxicity)
Phytotoxicity to paddy rice [3]: 1 (1%-39% of herbicidal efficacy or phytotoxicity)
Selective Index [4]: 10
Bulrush post (herbicidal efficacy grade) (bulrush [5]): 4 (90%-100% of herbicidal efficacy or phytotoxicity)
False pimpernel pre (herbicidal efficacy grade) (false pimpernel [6]): 4 (90%-100% of herbicidal efficacy or phytotoxicity)
Burnyard grass post (herbicidal efficacy grade) (barnyard glass): 4 (90%-100% of herbicidal efficacy or phytotoxicity)
False pimpernel post (herbicidal efficacy grade) (false pimpernel [7]): 4 (90%-100% of herbicidal efficacy or phytotoxicity)

CCCOC(=O)N(c1ccccc1CN1CC(C)(C2CC2)OC1=O)S(=O)(=O)C(F)(F)F (racemic) [1-112]
Herbicide effect to Bulrush (bulrush [1]): 4 (90%-100% of herbicidal efficacy or phytotoxicity)
Bulrush pre (herbicidal efficacy grade) (bulrush [2]): 4 (90%-100% of herbicidal efficacy or phytotoxicity)
Phytotoxicity to paddy rice [3]: 2 (40%-69% of herbicidal efficacy or phytotoxicity)
Selective Index [4]: 30
Bulrush post (herbicidal efficacy grade) (bulrush [5]): 4 (90%-100% of herbicidal efficacy or phytotoxicity)
False pimpernel pre (herbicidal efficacy grade) (false pimpernel [6]): 4 (90%-100% of herbicidal efficacy or phytotoxicity)
Burnyard grass post (herbicidal efficacy grade) (barnyard glass): 4 (90%-100% of herbicidal efficacy or phytotoxicity)
False pimpernel post (herbicidal efficacy grade) (false pimpernel [7]): 4 (90%-100% of herbicidal efficacy or phytotoxicity)

CC(C)COC(=O)N(c1ccccc1CN1CC(C)(C)SC1=O)S(=O)(=O)C(F)(F)F [Compound No. 1-185, 3-{2-[N-(isobutoxycarbonyl)-N-(trifluoromethanesulfonyl)amino]benzyl}-5,5-dimethylthiazolidin-2-one]
Herbicide effect to Bulrush (bulrush [1]): 4 (90%-100% of herbicidal efficacy or phytotoxicity)
Bulrush pre (herbicidal efficacy grade) (bulrush [2]): 4 (90%-100% of herbicidal efficacy or phytotoxicity)
Phytotoxicity to paddy rice [3]: 0 (0% of herbicidal efficacy or phytotoxicity)
Selective Index [4]: 33.3
Bulrush post (herbicidal efficacy grade) (bulrush [5]): 4 (90%-100% of herbicidal efficacy or phytotoxicity)
False pimpernel pre (herbicidal efficacy grade) (false pimpernel [6]): 4 (90%-100% of herbicidal efficacy or phytotoxicity)
Burnyard grass post (herbicidal efficacy grade) (barnyard glass): 4 (90%-100% of herbicidal efficacy or phytotoxicity)
False pimpernel post (herbicidal efficacy grade) (false pimpernel [7]): 4 (90%-100% of herbicidal efficacy or phytotoxicity)

CCOC(=O)N(c1ccccc1CN1CC(C)(CC(C)C)OC1=O)S(=O)(=O)C(F)(F)F (racemic) [1-125]
Herbicide effect to Bulrush (bulrush [1]): 4 (90%-100% of herbicidal efficacy or phytotoxicity)
Bulrush pre (herbicidal efficacy grade) (bulrush [2]): 4 (90%-100% of herbicidal efficacy or phytotoxicity)
Phytotoxicity to paddy rice [3]: 1 (1%-39% of herbicidal efficacy or phytotoxicity)
Selective Index [4]: 10
Bulrush post (herbicidal efficacy grade) (bulrush [5]): 4 (90%-100% of herbicidal efficacy or phytotoxicity)
False pimpernel pre (herbicidal efficacy grade) (false pimpernel [6]): 4 (90%-100% of herbicidal efficacy or phytotoxicity)
Burnyard grass post (herbicidal efficacy grade) (barnyard glass): 4 (90%-100% of herbicidal efficacy or phytotoxicity)
False pimpernel post (herbicidal efficacy grade) (false pimpernel [7]): 4 (90%-100% of herbicidal efficacy or phytotoxicity)

CCCC1(C)CN(Cc2ccccc2N(C(=O)OCC(C)C)S(=O)(=O)C(F)(F)F)C(=O)O1 (racemic) [1-122]
Herbicide effect to Bulrush (bulrush [1]): 4 (90%-100% of herbicidal efficacy or phytotoxicity)
Bulrush pre (herbicidal efficacy grade) (bulrush [2]): 4 (90%-100% of herbicidal efficacy or phytotoxicity)
Phytotoxicity to paddy rice [3]: 1 (1%-39% of herbicidal efficacy or phytotoxicity)
Selective Index [4]: 10
Bulrush post (herbicidal efficacy grade) (bulrush [5]): 4 (90%-100% of herbicidal efficacy or phytotoxicity)
False pimpernel pre (herbicidal efficacy grade) (false pimpernel [6]): 4 (90%-100% of herbicidal efficacy or phytotoxicity)
Burnyard grass post (herbicidal efficacy grade) (barnyard glass): 4 (90%-100% of herbicidal efficacy or phytotoxicity)
False pimpernel post (herbicidal efficacy grade) (false pimpernel [7]): 4 (90%-100% of herbicidal efficacy or phytotoxicity)

CCCCCCCOC(=O)N(c1ccccc1CN1CC(C)(C)OC1=O)S(=O)(=O)C(F)(F)F [1-94]
Herbicide effect to Bulrush (bulrush [1]): 4 (90%-100% of herbicidal efficacy or phytotoxicity)
Bulrush pre (herbicidal efficacy grade) (bulrush [2]): 4 (90%-100% of herbicidal efficacy or phytotoxicity)
Phytotoxicity to paddy rice [3]: 1 (1%-39% of herbicidal efficacy or phytotoxicity)
Selective Index [4]: ≧30
Bulrush post (herbicidal efficacy grade) (bulrush [5]): 4 (90%-100% of herbicidal efficacy or phytotoxicity)
False pimpernel pre (herbicidal efficacy grade) (false pimpernel [6]): 4 (90%-100% of herbicidal efficacy or phytotoxicity)
Burnyard grass post (herbicidal efficacy grade) (barnyard glass): 4 (90%-100% of herbicidal efficacy or phytotoxicity)
False pimpernel post (herbicidal efficacy grade) (false pimpernel [7]): 4 (90%-100% of herbicidal efficacy or phytotoxicity)

COC(=O)N(c1ccccc1CN1CC2(CCCCC2)OC1=O)S(=O)(=O)C(F)(F)F [1-149]
Herbicide effect to Bulrush (bulrush [1]): 4 (90%-100% of herbicidal efficacy or phytotoxicity)
Bulrush pre (herbicidal efficacy grade) (bulrush [2]): 4 (90%-100% of herbicidal efficacy or phytotoxicity)
Phytotoxicity to paddy rice [3]: 2 (40%-69% of herbicidal efficacy or phytotoxicity)
Selective Index [4]: 10
Bulrush post (herbicidal efficacy grade) (bulrush [5]): 4 (90%-100% of herbicidal efficacy or phytotoxicity)
False pimpernel pre (herbicidal efficacy grade) (false pimpernel [6]): 4 (90%-100% of herbicidal efficacy or phytotoxicity)
Burnyard grass post (herbicidal efficacy grade) (barnyard glass): 4 (90%-100% of herbicidal efficacy or phytotoxicity)
False pimpernel post (herbicidal efficacy grade) (false pimpernel [7]): 4 (90%-100% of herbicidal efficacy or phytotoxicity)

CCOC(=O)N(c1ccccc1CN1CC(C)(C(C)C)OC1=O)S(=O)(=O)C(F)(F)F (racemic) [1-115]
Herbicide effect to Bulrush (bulrush [1]): 4 (90%-100% of herbicidal efficacy or phytotoxicity)
Bulrush pre (herbicidal efficacy grade) (bulrush [2]): 4 (90%-100% of herbicidal efficacy or phytotoxicity)
Phytotoxicity to paddy rice [3]: 3 (70%-89% of herbicidal efficacy or phytotoxicity)
Selective Index [4]: 10
Bulrush post (herbicidal efficacy grade) (bulrush [5]): 4 (90%-100% of herbicidal efficacy or phytotoxicity)
False pimpernel pre (herbicidal efficacy grade) (false pimpernel [6]): 4 (90%-100% of herbicidal efficacy or phytotoxicity)
Burnyard grass post (herbicidal efficacy grade) (barnyard glass): 4 (90%-100% of herbicidal efficacy or phytotoxicity)
False pimpernel post (herbicidal efficacy grade) (false pimpernel [7]): 4 (90%-100% of herbicidal efficacy or phytotoxicity)

CC(C)COC(=O)N(c1ccccc1CN1CC(CCl)OC1=O)S(=O)(=O)C(F)(F)F (stereo not drawn) [1-40]
Herbicide effect to Bulrush (bulrush [1]): 4 (90%-100% of herbicidal efficacy or phytotoxicity)
Bulrush pre (herbicidal efficacy grade) (bulrush [2]): 4 (90%-100% of herbicidal efficacy or phytotoxicity)
Phytotoxicity to paddy rice [3]: 0 (0% of herbicidal efficacy or phytotoxicity)
Selective Index [4]: 100
Bulrush post (herbicidal efficacy grade) (bulrush [5]): 4 (90%-100% of herbicidal efficacy or phytotoxicity)
False pimpernel pre (herbicidal efficacy grade) (false pimpernel [6]): 4 (90%-100% of herbicidal efficacy or phytotoxicity)
Burnyard grass post (herbicidal efficacy grade) (barnyard glass): 4 (90%-100% of herbicidal efficacy or phytotoxicity)
False pimpernel post (herbicidal efficacy grade) (false pimpernel [7]): 4 (90%-100% of herbicidal efficacy or phytotoxicity)

CC1(C)CN(Cc2ccccc2NS(=O)(=O)C(F)(F)F)C(=O)O1 [1-43]
Herbicide effect to Bulrush (bulrush [1]): 4 (90%-100% of herbicidal efficacy or phytotoxicity)
Bulrush pre (herbicidal efficacy grade) (bulrush [2]): 4 (90%-100% of herbicidal efficacy or phytotoxicity)
Phytotoxicity to paddy rice [3]: 2 (40%-69% of herbicidal efficacy or phytotoxicity)
Selective Index [4]: 10
Bulrush post (herbicidal efficacy grade) (bulrush [5]): 4 (90%-100% of herbicidal efficacy or phytotoxicity)
False pimpernel pre (herbicidal efficacy grade) (false pimpernel [6]): 4 (90%-100% of herbicidal efficacy or phytotoxicity)
Burnyard grass post (herbicidal efficacy grade) (barnyard glass): 4 (90%-100% of herbicidal efficacy or phytotoxicity)
False pimpernel post (herbicidal efficacy grade) (false pimpernel [7]): 4 (90%-100% of herbicidal efficacy or phytotoxicity)

CCC1(C)CN(Cc2ccccc2N(C(=O)OCC(C)C)S(=O)(=O)C(F)(F)F)C(=S)O1 (stereo not drawn) [1-181]
Herbicide effect to Bulrush (bulrush [1]): 4 (90%-100% of herbicidal efficacy or phytotoxicity)
Bulrush pre (herbicidal efficacy grade) (bulrush [2]): 4 (90%-100% of herbicidal efficacy or phytotoxicity)
Phytotoxicity to paddy rice [3]: 1 (1%-39% of herbicidal efficacy or phytotoxicity)
Selective Index [4]: 10
Bulrush post (herbicidal efficacy grade) (bulrush [5]): 4 (90%-100% of herbicidal efficacy or phytotoxicity)
False pimpernel pre (herbicidal efficacy grade) (false pimpernel [6]): 4 (90%-100% of herbicidal efficacy or phytotoxicity)
Burnyard grass post (herbicidal efficacy grade) (barnyard glass): 4 (90%-100% of herbicidal efficacy or phytotoxicity)
False pimpernel post (herbicidal efficacy grade) (false pimpernel [7]): 4 (90%-100% of herbicidal efficacy or phytotoxicity)

COC(=O)N(c1ccccc1CN1C(=O)OC(C)(C)C1C)S(=O)(=O)C(F)(F)F (stereo not drawn) [1-148]
Herbicide effect to Bulrush (bulrush [1]): 4 (90%-100% of herbicidal efficacy or phytotoxicity)
Bulrush pre (herbicidal efficacy grade) (bulrush [2]): 4 (90%-100% of herbicidal efficacy or phytotoxicity)
Phytotoxicity to paddy rice [3]: 3 (70%-89% of herbicidal efficacy or phytotoxicity)
Selective Index [4]: ≧30
Bulrush post (herbicidal efficacy grade) (bulrush [5]): 4 (90%-100% of herbicidal efficacy or phytotoxicity)
False pimpernel pre (herbicidal efficacy grade) (false pimpernel [6]): 4 (90%-100% of herbicidal efficacy or phytotoxicity)
Burnyard grass post (herbicidal efficacy grade) (barnyard glass): 4 (90%-100% of herbicidal efficacy or phytotoxicity)
False pimpernel post (herbicidal efficacy grade) (false pimpernel [7]): 4 (90%-100% of herbicidal efficacy or phytotoxicity)
